Experimental data: ChEMBL document CHEMBL2203268, “Resveratrol as a kcat type inhibitor for tyrosinase: potentiated melanogenesis inhibitor” (Bioorg Med Chem, 2012)
pIC50: −log10 of the molar value. Activity calls are given as the source filed them. The calls are words filed in the database; no cut-off is given here.

Assays:
B16-F10 [1] = test: Antimelanogenic activity in mouse assessed as cellular melanin content B16F10 cells after 72 hrs by spectrophotometric analysis; format: functional, cell-based
B16-F10 [2] = test: Cytotoxicity against mouse B16F10 cells assessed as suppression of cell viability at 12.5 to 200 uM after 72 hrs; format: cell-based; settings: b16-f10, 72 h
B16-F10 [3] = test: Cytotoxicity against mouse B16F10 cells assessed as suppression of cell viability at 400 uM after 72 hrs; format: cell-based; settings: b16-f10, 72 h
[4] = target: T1, Tyrosinase (Agaricus bisporus) (UniProt O42713); test: Inhibition of mushroom tyrosinase-mediated L-tyrosine oxidation at 100 uM after 60 mins by HPLC analysis
T1 sequence (whole entry): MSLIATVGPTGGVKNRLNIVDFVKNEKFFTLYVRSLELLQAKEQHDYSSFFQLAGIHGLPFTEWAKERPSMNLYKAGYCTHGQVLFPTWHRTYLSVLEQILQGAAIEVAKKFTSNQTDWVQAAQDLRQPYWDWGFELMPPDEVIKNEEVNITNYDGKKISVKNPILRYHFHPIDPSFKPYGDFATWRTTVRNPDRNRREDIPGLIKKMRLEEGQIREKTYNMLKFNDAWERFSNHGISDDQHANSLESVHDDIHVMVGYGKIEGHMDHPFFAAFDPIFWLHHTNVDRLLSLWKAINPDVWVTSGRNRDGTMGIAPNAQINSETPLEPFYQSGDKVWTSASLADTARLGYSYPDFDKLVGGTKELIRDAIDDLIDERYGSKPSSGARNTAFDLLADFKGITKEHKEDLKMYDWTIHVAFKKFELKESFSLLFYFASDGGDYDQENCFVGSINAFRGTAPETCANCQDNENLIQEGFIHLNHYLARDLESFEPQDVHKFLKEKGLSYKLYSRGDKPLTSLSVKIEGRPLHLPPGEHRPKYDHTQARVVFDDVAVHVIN

[5] = target: T1, Tyrosinase (Agaricus bisporus); test: Inhibition of mushroom tyrosinase-mediated oxygen consumption using L-tyrosine substrate after 60 mins
[6] = target: T1, Tyrosinase (Agaricus bisporus); test: Inhibition of mushroom tyrosinase-mediated oxygen consumption at 100 uM using L-tyrosine substrate incubated 30 mins prior to substrate addition measured after 60 mins
[7] = target: T1, Tyrosinase (Agaricus bisporus); test: Inhibition of mushroom tyrosinase-mediated oxygen consumption at 100 uM using L-DOPA substrate incubated 30 mins prior to substrate addition measured after 60 mins
[8] = target: T1, Tyrosinase (Agaricus bisporus); test: Activation of mushroom tyrosinase assessed as oxygen consumption using L-tyrosine substrate after 60 mins
B16-F10 [9] = test: Cytotoxicity against mouse B16F10 cells assessed as suppression of cell viability after 72 hrs; format: cell-based
[10] = Drug metabolism assessed as oxidation of the compound at 100 uM by HPLC analysis in the presence of tyrosinase; format: physicochemical; settings: TDE = time-dependent effect
[11] = target: T1, Tyrosinase (Agaricus bisporus); test: Inhibition of mushroom tyrosinase assessed as L-DOPA oxidation at 100 uM incubated 30 mins prior to substrate addition measured after 60 mins by UV-vis spectrophotometric analysis
[12] = target: T1, Tyrosinase (Agaricus bisporus); test: Inhibition of mushroom tyrosinase-mediated L-DOPA oxidation assessed as decrease in dopachrome formation at 100 uM incubated 30 mins prior to substrate addition measured after 60 mins by UV-vis spectrophotometric analysis
B16-F10 [13] = test: Antimelanogenic activity in mouse assessed as cellular melanin content B16F10 cells at 200 uM after 72 hrs spectrophotometric analysis; format: functional, cell-based
[14] = target: T1, Tyrosinase (Agaricus bisporus); test: Activation of mushroom tyrosinase assessed as L-DOPA oxidation at 100 uM after 30 mins by UV-vis spectrophotometric analysis
[15] = target: T1, Tyrosinase (Agaricus bisporus); test: Activation of mushroom tyrosinase assessed as dopachrome formation after 60 mins by UV-vis spectrophotometric analysis
[16] = target: T1, Tyrosinase (Agaricus bisporus); test: Inhibition of mushroom tyrosinase-mediated oxygen consumption using L-DOPA substrate at 100 uM after 30 mins
[17] = target: T1, Tyrosinase (Agaricus bisporus); test: Inhibition of mushroom tyrosinase-mediated L-DOPA oxidation at 100 uM after 30 mins by UV-vis spectrophotometric analysis
[18] = target: T1, Tyrosinase (Agaricus bisporus); test: Inhibition of mushroom tyrosinase assessed as L-tyrosine oxidation at 100 uM incubated 30 mins prior to substrate addition measured after 60 mins by UV-vis spectrophotometric analysis
[19] = target: T1, Tyrosinase (Agaricus bisporus); test: Inhibition of mushroom tyrosinase-mediated L-DOPA oxidation assessed as recovery of enzymatic activity at 100 uM preincubated for 30 mins by HPLC analysis in the presence of 200 uM of L-cysteine
[20] = target: T1, Tyrosinase (Agaricus bisporus); test: Inhibition of mushroom tyrosinase-mediated L-tyrosine oxidation assessed as decrease in dopachrome formation at 100 uM after 60 mins by UV-vis spectrophotometric analysis
[21] = target: T1, Tyrosinase (Agaricus bisporus); test: Inhibition of mushroom tyrosinase-mediated dopachrome formation after 60 mins by UV-vis spectrophotometric analysis
[22] = Drug metabolism assessed as oxidation of the compound at 100 uM after 10 mins by UV-vis spectrophotometric analysis in the presence of tyrosinase; format: physicochemical
tyrosinase = test: Drug metabolism assessed as oxidation of the compound at 100 uM after 60 mins by HPLC analysis in the presence of tyrosinase; format: physicochemical; settings: read-out: Drug metabolism
[23] = target: T1, Tyrosinase (Agaricus bisporus); test: Inhibition of mushroom tyrosinase-mediated L-tyrosine oxidation after 60 mins by HPLC analysis
[24] = Drug metabolism assessed as oxidation of the compound at 100 uM after 30 mins by HPLC analysis in the presence of tyrosinase; format: physicochemical; settings: 0.5 h
[25] = target: T1, Tyrosinase (Agaricus bisporus); test: Inhibition of mushroom tyrosinase assessed as L-DOPA oxidation HPLC analysis
[26] = target: T1, Tyrosinase (Agaricus bisporus); test: Inhibition of mushroom tyrosinase-mediated L-DOPA oxidation assessed as decrease in dopachrome formation at 100 uM preincubated for 30 mins by HPLC analysis
B16-F10 [27] = test: Cytotoxicity against mouse B16F10 cells assessed as suppression of cell viability at 200 uM after 72 hrs; format: cell-based; settings: b16-f10, 72 h

Structure (SMILES): Oc1cc(O)cc(/C=C\c2ccccc2)c1
- Activity (B16-F10 [1]): inactive
- Activity (B16-F10 [2]): Non-toxic

Structure (SMILES): Oc1cc(O)cc(CCc2ccccc2)c1 [DIHYDROPINOSYLVIN]
- Activity (B16-F10 [1]): inactive
- Activity (B16-F10 [2]): Non-toxic

Structure (SMILES): Oc1cc(O)cc(/C=C/c2ccccc2)c1 [PINOSYLVIN]
- Activity (B16-F10 [3]): Toxic
- Activity (B16-F10 [2]): Non-toxic

Structure (SMILES): Oc1ccc(/C=C/c2cc(O)cc(O)c2)cc1 [RESVERATROL]
- Activity (B16-F10 [1]): Dose-dependent effect
- inhibition [4]: Active
- inhibition [5]: inactive
- inhibition [6]: Active
- inhibition [7]: Active
- Activity [8]: Dose-dependent effect
- pIC50 (B16-F10 [9]; Mus musculus, B16-F10, 72 h): < 3.70
- Activity (B16-F10 [9]; mouse, b16-f10, 72 h): Dose-dependent effect
- Drug metabolism [10]: tde
- inhibition [11]: 90%
- inhibition [12]: Active
- Activity (B16-F10 [13]): Active
- Activity [14]: inactive
- Activity [15]: Dose-dependent effect
- inhibition [16]: inactive
- inhibition [17]: inactive
- Activity (B16-F10 [2]): Non-toxic
- inhibition [18]: Active
- inhibition [19]: 20%
- inhibition [20]: Active
- inhibition [21]: inactive
- Drug metabolism [22]: Active
- metabolised at 1 h, 100 µM (tyrosinase): 90%
- inhibition [23]: Dose-dependent effect
- Drug metabolism [24]: Active
- inhibition [25]: Active
- inhibition [26]: 10%
- Activity (B16-F10 [27]): 10%
